Patent US8796268B2, “Heteroaryls and uses thereof” (Millennium Pharmaceuticals, Inc., priority 2010, dated 2014)

Columns and labels:
Type in all cases: biochemical
Human PI3K alpha = molecular target: T1, Human PI3K alpha (Homo sapiens, UniProt P42336); experiment: Human PI3K alpha enzyme assay (HTRF); conditions: concentration not given, b1387 states 1.1 μM for PI3K α and β; for inhibition at 1.1 µM: read-out: p110 alpha Percent Inhibition
T1 construct: His (N); host or cells: SF9 insect cells (baculovirus)

Human PI3K beta = molecular target: T2, Human PI3K beta (Homo sapiens, UniProt P42338); experiment: Human PI3K beta enzyme assay (HTRF); conditions: concentration not given, b1387 states 1.1 μM for PI3K α and β; for inhibition at 1.1 µM: read-out: p110 beta Percent Inhibition
T2 construct: His (N); host or cells: SF9 insect cells (baculovirus)
In short: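 Compounds were mixed with 25 uM ATP, then with 3.5 uM di-C8 PI(4,5)P2 and His-tagged PI3K isoform (β 5.25 nM, δ 0.75 nM, γ 5 nM) at pH 7.00. After 30 min at room temperature, EDTA stopped the reaction and PIP3 was measured by HTRF over 1 h.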

Human PI3K delta = molecular target: T3, Human PI3K delta (Homo sapiens, UniProt O00329); experiment: Human PI3K delta enzyme assay (HTRF); conditions: concentration not given, b1389 states 1.0 μM for PI3K δ and γ; for inhibition at 1 µM: read-out: p110 delta Percent Inhibition
T3 construct: His (N); host or cells: SF9 insect cells (baculovirus)
Excerpt: (§1) The catalytic subunits of PI3Ks are cloned into either pDEST8(p110 alpha) or pDEST10(p110beta, p110delta, and p110gamma) as N-terminal His tagged fusion proteins using the Gateway system (Invitrogen, catalog#11804-010 for pDEST8 and 11806-015 for pDEST10). The sequences are verified before recombinant protein expression using the Baculovirus Expression System with Gateway® Technology. The accession numbers for the subunits are as follows: • p110 alpha (GB:U79143) • p110beta (GB: S67334) • p110delta (GB: U86453) • p110gamma (GB: X83368) • The regulatory subunits of PI3Ks are cloned into pDEST8 as un-tagged protein using the Gateway system (Catalog#11804-010). The sequences are verified before recombinant protein expression using the Baculovirus Expression System with Gateway® Technology. The accession numbers for the subunits are as following: • p85 alpha (GB: BC030815) • p101(GB: AB028925) • VPS34 (accession number GB:BC033004) is cloned into pDEST20—Thombin as N-terminal GST tagged fusion proteins using the Gateway system (Invitrogen, catalog#11804-013). The sequences are verified before recombinant protein expression using the Baculovirus Expression System with Gateway® Technology.
(§2) For expression of the p110 complexes, the p85 (MOI of 4) is co-infected with p110 alpha, beta, and delta respectively (1MOI) in SF9 cells and harvested at 60 hours post co-infection. P110 gamma was infected at 1 MOI and harvested at 60 hours post infection.
(§3) For purification, PI3Ks are purified by Ni-NTA Agarose (Qiagen #30250) followed by Mono Q 10/100 GL (Ge Healthcare #17-5167-01). VPS34 is purified by Glutathione Sepharose 4 Fast Flow (GE Healthcare #17-5132-03) followed by HiTrap Q (GE Healthcare #17-1153-01).
(§4) 0.5 uL compounds in DMSO are added to wells of a 384 well microtitre plate (Corning 3575). At room temperature: 10 ul PI3K reaction buffer (50 mM Hepes, 5 mM DTT, 150 mM NaCl, 10 mM beta-glycerophosphate, 10 mM MgCl2, 0.25 mM sodium cholate and 0.001% CHAPS, pH 7.00) containing ATP (25 uM, Promega) is added followed immediately by 10 ul PI3K reaction buffer containing di-C8 P1(4,5)P2 (3.5 uM, CellSignals) and PI3Kalpha (0.4875 nM, Millennium Protein Sciences Group) and the mixture is incubated with shaking at room temperature for 30 minutes. Then 5 ul PI3K stop mix (50 mM Hepes, 5 mM DTT, 150 mM NaCl, 0.01% Tween-20, 15 mM EDTA and 25 nM biotin-PI(3,4,5)P3 (Echelon) is added to quench the reaction followed immediately by addition of 5 ul HTRF detection mix (50 mM Hepes, 5 mM DTT, 150 mM NaCl, 0.01% Tween-20, 40 mM KF, 1.0 nM GST:GRP-1 PH domain (Millennium Protein Sciences Group), 15 nM Streptavidin-XL (CisBio) and 0.375 nM anti-GST Eu++ antibody (CisBio) at pH 7.00). The plates are then incubated for 1 hour at room temperature with shaking and then read on a BMG PheraStar Plus reader.
(§5) 2) Human PI3K beta, delta and gamma isoforms are tested using the procedure described for PI3K alpha above but with the following changes: PI3K beta (5.25 nM), PI3K delta (0.75 nM) and PI3K gamma (5 nM). All isoforms supplied by Millennium Protein Science Group.
(§6) For the assay methods described above, test compound percent inhibition, at various concentrations, is calculated relative to control (DMSO and EDTA) treated samples. Compound concentration versus percent inhibition curves are fitted to generate IC50 values. One skilled in the art will appreciate that the values generated either as percentage inhibition at a single concentration or IC50 values are subject to experimental variation.

Human PI3K gamma = molecular target: T4, Human PI3K gamma (Homo sapiens, UniProt P48736); experiment: Human PI3K gamma enzyme assay (HTRF); conditions: concentration not given, b1389 states 1.0 μM for PI3K δ and γ; for inhibition at 1 µM: read-out: p110 gamma Percent Inhibition
T4 construct: His (N); host or cells: SF9 insect cells (baculovirus)
Excerpt: as §1, §2, §3, §4, §5, §6

T4 sequence (P48736 whole entry): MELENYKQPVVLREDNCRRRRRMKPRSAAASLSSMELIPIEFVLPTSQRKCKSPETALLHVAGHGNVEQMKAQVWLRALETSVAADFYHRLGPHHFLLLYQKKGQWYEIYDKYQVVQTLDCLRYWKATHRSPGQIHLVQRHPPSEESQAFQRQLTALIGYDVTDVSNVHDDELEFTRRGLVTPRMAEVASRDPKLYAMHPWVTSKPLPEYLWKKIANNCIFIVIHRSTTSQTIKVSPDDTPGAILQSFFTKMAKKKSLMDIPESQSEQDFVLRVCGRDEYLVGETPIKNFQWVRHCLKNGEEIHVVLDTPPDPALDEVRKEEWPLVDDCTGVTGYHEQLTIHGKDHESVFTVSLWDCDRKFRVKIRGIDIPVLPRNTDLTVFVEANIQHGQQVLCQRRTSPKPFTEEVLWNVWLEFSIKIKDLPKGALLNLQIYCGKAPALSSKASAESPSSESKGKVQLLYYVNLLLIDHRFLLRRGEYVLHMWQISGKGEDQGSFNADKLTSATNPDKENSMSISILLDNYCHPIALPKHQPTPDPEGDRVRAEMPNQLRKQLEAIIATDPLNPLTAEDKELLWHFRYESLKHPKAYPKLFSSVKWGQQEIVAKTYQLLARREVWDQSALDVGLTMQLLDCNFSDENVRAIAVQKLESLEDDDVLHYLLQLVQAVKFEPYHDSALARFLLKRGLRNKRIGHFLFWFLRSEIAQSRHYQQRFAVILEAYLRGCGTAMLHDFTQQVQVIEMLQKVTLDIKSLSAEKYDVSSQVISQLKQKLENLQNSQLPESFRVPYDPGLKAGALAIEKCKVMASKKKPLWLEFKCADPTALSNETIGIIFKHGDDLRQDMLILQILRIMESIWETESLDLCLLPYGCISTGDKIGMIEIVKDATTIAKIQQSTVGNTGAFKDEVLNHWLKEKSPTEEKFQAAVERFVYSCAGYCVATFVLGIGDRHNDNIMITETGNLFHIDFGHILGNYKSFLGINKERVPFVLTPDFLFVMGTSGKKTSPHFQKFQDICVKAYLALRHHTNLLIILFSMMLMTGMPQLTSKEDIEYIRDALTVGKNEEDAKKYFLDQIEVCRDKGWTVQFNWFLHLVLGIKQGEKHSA
T2 sequence (P42338 whole entry): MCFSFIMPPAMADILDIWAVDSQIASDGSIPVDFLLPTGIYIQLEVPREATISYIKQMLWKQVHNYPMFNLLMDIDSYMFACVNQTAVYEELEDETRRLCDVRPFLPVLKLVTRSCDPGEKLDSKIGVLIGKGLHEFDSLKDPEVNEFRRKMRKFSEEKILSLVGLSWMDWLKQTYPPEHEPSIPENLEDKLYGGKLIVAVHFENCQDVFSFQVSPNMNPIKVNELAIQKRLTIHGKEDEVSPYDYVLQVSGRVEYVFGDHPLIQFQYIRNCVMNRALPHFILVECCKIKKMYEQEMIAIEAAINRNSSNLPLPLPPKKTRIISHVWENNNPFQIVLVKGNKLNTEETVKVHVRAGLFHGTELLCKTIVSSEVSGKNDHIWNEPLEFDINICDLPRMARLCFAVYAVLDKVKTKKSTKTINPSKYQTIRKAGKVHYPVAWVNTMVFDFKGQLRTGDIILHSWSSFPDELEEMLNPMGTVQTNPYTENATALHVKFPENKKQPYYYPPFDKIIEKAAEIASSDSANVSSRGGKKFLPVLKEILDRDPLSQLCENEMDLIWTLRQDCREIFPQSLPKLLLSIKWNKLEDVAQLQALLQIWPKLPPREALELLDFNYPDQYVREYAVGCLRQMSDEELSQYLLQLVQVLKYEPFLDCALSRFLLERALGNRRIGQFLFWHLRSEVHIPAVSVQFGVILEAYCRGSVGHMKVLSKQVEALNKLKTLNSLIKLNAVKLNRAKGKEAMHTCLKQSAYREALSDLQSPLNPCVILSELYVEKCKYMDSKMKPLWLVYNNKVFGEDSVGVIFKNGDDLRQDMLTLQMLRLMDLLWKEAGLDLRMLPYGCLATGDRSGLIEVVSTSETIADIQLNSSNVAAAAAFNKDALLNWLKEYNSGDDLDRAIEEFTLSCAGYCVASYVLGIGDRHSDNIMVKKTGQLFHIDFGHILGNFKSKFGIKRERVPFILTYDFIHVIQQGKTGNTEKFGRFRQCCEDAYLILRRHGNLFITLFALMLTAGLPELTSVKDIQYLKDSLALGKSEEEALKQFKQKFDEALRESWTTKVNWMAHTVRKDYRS
T2 sequence (P27986 whole entry partner): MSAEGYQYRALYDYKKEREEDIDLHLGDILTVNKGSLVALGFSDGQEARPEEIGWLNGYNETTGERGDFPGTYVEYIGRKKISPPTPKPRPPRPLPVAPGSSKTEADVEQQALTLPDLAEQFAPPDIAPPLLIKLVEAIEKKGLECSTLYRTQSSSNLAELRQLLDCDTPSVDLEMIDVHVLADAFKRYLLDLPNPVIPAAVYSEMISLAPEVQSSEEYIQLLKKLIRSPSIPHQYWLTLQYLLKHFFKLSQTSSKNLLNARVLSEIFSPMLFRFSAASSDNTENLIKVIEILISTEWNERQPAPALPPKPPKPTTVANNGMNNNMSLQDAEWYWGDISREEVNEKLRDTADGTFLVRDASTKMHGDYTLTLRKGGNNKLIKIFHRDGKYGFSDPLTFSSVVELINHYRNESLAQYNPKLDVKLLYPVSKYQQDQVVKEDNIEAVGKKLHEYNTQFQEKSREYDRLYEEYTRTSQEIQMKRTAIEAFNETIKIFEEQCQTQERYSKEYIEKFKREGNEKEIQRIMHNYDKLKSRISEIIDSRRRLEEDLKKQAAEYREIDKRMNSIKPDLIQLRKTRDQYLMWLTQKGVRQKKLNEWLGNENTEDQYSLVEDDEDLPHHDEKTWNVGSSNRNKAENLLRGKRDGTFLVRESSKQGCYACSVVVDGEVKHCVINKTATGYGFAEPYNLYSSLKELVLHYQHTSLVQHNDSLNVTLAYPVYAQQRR
T3 sequence (O00329 whole entry): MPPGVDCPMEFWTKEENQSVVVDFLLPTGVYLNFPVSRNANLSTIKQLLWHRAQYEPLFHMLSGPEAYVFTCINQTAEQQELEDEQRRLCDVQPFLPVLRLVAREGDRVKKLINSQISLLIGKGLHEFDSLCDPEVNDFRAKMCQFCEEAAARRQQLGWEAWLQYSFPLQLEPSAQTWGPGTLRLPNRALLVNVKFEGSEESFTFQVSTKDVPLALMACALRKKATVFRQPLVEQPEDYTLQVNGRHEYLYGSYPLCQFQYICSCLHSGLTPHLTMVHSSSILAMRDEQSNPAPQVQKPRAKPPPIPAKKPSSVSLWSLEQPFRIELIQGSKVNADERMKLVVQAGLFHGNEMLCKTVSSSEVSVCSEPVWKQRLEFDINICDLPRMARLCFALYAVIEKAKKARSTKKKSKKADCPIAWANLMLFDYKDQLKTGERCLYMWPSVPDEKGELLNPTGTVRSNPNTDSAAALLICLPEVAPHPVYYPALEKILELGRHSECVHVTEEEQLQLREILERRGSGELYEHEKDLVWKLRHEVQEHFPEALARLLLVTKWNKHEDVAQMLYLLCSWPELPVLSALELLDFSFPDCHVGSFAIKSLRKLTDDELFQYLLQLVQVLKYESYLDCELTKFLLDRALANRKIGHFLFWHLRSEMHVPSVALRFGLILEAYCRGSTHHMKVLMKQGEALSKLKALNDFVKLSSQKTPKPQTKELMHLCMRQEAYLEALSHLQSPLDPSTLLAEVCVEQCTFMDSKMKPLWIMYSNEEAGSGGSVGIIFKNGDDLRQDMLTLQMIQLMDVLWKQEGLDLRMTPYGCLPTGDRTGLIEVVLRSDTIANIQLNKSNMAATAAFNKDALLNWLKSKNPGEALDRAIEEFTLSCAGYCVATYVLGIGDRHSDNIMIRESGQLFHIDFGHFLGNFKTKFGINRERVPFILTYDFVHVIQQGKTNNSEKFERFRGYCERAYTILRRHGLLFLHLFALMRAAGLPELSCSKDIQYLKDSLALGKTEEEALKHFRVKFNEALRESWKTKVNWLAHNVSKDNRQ
T3 sequence (P27986 whole entry partner): as the sequence (P27986 whole entry partner) above
T1 sequence (P42336 whole entry): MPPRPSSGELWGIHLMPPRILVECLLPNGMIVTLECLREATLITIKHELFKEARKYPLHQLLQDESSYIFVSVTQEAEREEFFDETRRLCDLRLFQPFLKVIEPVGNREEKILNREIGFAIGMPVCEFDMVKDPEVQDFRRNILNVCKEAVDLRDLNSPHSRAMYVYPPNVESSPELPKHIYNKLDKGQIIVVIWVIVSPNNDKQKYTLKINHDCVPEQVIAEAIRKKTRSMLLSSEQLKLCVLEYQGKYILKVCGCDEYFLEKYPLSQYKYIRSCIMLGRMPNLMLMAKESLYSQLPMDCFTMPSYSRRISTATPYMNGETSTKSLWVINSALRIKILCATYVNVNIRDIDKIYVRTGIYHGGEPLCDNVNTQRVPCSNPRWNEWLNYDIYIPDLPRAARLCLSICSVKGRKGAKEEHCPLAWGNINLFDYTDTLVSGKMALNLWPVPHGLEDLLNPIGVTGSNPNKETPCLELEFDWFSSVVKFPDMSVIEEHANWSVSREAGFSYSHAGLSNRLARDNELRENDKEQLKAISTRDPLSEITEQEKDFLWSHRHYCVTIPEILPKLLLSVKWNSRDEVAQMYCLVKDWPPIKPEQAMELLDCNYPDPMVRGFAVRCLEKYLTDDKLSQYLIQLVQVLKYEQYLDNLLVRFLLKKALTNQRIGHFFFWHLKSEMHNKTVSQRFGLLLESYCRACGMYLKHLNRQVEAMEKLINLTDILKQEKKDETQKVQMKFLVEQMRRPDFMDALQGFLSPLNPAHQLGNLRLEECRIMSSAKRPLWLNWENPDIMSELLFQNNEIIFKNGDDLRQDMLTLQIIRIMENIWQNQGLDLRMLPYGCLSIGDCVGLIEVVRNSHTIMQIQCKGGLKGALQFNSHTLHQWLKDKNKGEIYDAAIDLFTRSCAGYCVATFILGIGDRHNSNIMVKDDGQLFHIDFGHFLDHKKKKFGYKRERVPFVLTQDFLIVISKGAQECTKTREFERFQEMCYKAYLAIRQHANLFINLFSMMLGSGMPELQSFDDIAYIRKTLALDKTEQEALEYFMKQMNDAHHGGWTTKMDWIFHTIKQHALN
T1 sequence (P27986 whole entry partner): as the sequence (P27986 whole entry partner) above

SMILES	inhibition at 1.1 µM (Human PI3K alpha) [%]	inhibition at 1.1 µM (Human PI3K beta) [%]	inhibition at 1 µM (Human PI3K delta) [%]	inhibition at 1 µM (Human PI3K gamma) [%]	p110 alpha Percent Inhibition (Human PI3K alpha) [%]	p110 beta Percent Inhibition (Human PI3K beta) [%]	p110 delta Percent Inhibition (Human PI3K delta) [%]	p110 gamma Percent Inhibition (Human PI3K gamma) [%]
Nc1nccc(-c2sc(-c3ccncc3)nc2Cc2ccc(Cl)cc2)n1 [Compound 150, 4-(4-(4-chlorobenzyl)-2-(pyridin-4-yl)thiazol-5-yl)pyrimidin-2-amine]	2	54	35	6	–	–	–	–
CC(=O)Nc1cc(-c2cc(C(c3ccc(Cl)cc3)N3CCC3)c(-c3nnc[nH]3)s2)ccn1 (stereo not drawn) [Compound 151]	72	105	108	17	–	–	–	–
COC(=O)Nc1cc(-c2cc(C(c3ccc(Cl)cc3)N3CCNCC3)c(-c3nnc[nH]3)s2)ccn1 (stereo not drawn) [Compound 152]	61	97	106	16	–	–	–	–
CC(=O)Nc1cc(-c2sc(-c3nnc[nH]3)c(C(O)c3ccc4ccccc4n3)c2C#N)ccn1 (stereo not drawn) [Compound 153]	75	84	87	11	–	–	–	–
CC(=O)Nc1cc(-c2cc(C(c3ccc(Cl)cc3)N3CCNCC3)c(-c3nnc[nH]3)s2)ccn1 (stereo not drawn) [Compound 154]	79	108	108	39	–	–	–	–
OC(c1ccccc1F)c1cc(-c2ccncc2)sc1-c1nnc[nH]1 (stereo not drawn) [Compound 155]	29	64	53	28	–	–	–	–
CC(=O)Nc1cc(-c2cc(C(c3ccc(Cl)cc3)N3CCN(CC(F)(F)F)CC3)c(-c3nnc[nH]3)s2)ccn1 (stereo not drawn) [Compound 157]	55	68	101	7	–	–	–	–
COc1ccc(C(O)c2cc(-c3ccncc3)sc2-c2nnc[nH]2)c(C)c1 (stereo not drawn) [Compound 158]	18	94	69	20	–	–	–	–
OC(c1cccc(C(F)(F)F)c1)c1cc(-c2ccncc2)sc1-c1nnc[nH]1 (stereo not drawn) [Compound 159]	18	61	31	5	–	–	–	–
CC(=O)Nc1cc(-c2cc(C(c3ccc(Cl)cc3)N(C)C3CN(C)C3)c(-c3nnc[nH]3)s2)ccn1 (stereo not drawn) [Compound 160]	74	101	107	20	–	–	–	–
Cc1cc(-c2cc(C(c3ccc(Cl)cc3)N(C)C)c(-c3nnc[nH]3)s2)ccn1 (stereo not drawn) [Compound 161]	14	60	40	7	–	–	–	–
OC(c1ccc(F)cc1F)c1cc(-c2ccncc2)sc1-c1nnc[nH]1 (stereo not drawn) [Compound 162]	38	93	83	33	–	–	–	–
CN[C@H]1CCN(C(c2ccc(Cl)cc2)c2cc(-c3ccnc(NC(C)=O)c3)sc2-c2nnc[nH]2)C1 (stereo partly drawn) [Compound 163]	97	110	106	25	–	–	–	–
CC(=O)Nc1cc(-c2cc(C(c3ccc(Cl)cc3)N3CC[C@H](O)C3)c(-c3nnc[nH]3)s2)ccn1 (stereo partly drawn) [Compound 164]	100	107	112	44	–	–	–	–
CC(=O)Nc1cc(-c2sc(-c3nnc[nH]3)c(C(O)c3ccc(Cl)cc3)c2C#N)ccn1 (stereo not drawn) [Compound 165]	64	77	87	14	–	–	–	–
CC(=O)Nc1cc(-c2sc(-c3nnc[nH]3)c(Sc3ccc(Cl)cc3)c2C#N)ccn1 [Compound 166]	92	82	85	3	–	–	–	–
CC(=O)Nc1cc(-c2cc(C(c3ccc(Cl)cc3)n3ccnc3)c(-c3nnc[nH]3)s2)ccn1 (stereo not drawn) [Compound 167]	105	103	110	26	–	–	–	–
COc1cc(C(O)c2cc(-c3ccnnc3)sc2-c2nnc[nH]2)c(F)cc1Cl (stereo not drawn) [Compound 168]	–	–	–	–	23	107	110	58
OC(c1cc(-c2ccncc2)sc1-c1nnc[nH]1)c1cccc2nccnc12 (stereo not drawn) [Compound 169]	65	89	65	7	–	–	–	–
CNC1CN(C(c2ccc(Cl)cc2)c2cc(-c3ccnc(NC(C)=O)c3)sc2-c2nnc[nH]2)C1 (stereo not drawn) [Compound 170]	84	106	105	26	–	–	–	–
OC(c1ccc2ccccc2n1)c1cc(-c2ccncc2)sc1-c1nnc[nH]1 (stereo not drawn) [Compound 171]	59	106	99	60	–	–	–	–
N#Cc1c(-c2ccnnc2)sc(-c2nnc[nH]2)c1C(c1ccc2ccccc2c1)N1CCNCC1 (stereo not drawn) [Compound 172]	28	101	60	6	–	–	–	–
CC(=O)Nc1cc(-c2cc(C(OCC3CCCC3)c3ccc(Cl)cc3)c(-c3nnc[nH]3)s2)ccn1 (stereo not drawn) [Compound 173]	69	67	83	3	–	–	–	–
Cc1ccc(C(O)c2cc(-c3ccncc3)sc2-c2nnc[nH]2)cc1C (stereo not drawn) [Compound 174]	15	70	59	8	–	–	–	–
OC(c1cc(-c2ccncc2)sc1-c1nnc[nH]1)c1ccnc2ccccc12 (stereo not drawn) [Compound 175]	19	85	36	7	–	–	–	–
CC(=O)Nc1cc(-c2nc(Cc3ccc4ccccc4c3)c(C(=O)O)s2)ccn1 [Compound 177, 2-(2-acetamidopyridin-4-yl)-4-(naphthalen-2-ylmethyl)thiazole-5-carboxylic acid]	79	100	106	34	–	–	–	–
Oc1cc(-c2sc(-c3ccncc3)nc2Cc2ccc(Cl)cc2)[nH]n1 [Compound 178, 5-(4-(4-chlorobenzyl)-2-(pyridin-4-yl)thiazol-5-yl)-1H-pyrazol-3-ol]	20	109	88	38	–	–	–	–
